Test results reported in patent US20050054006A1, “Combinatorial fluorescent library based on the styryl scaffold” (New York University, priority 2003, published 2005).
“Also recorded” adds a separate entry of the source.

Assays:
[1] = tested on: UACC-62 human melanoma cells; test: Organelle localization in live cells by fluorescence microscopy; conditions: live UACC-62 cells, fluorescence microscope λex=405, 490, 570 nm; λem>510 nm
[2] = Fluorescence excitation/emission of the styryl dye library compounds; type: physicochemical

SMILES | LOCALIZATION [1] | EM(nm) ([2]; EX/EM peak no. 1) | EX(nm) ([2]; EX/EM peak no. 1) | EM(nm) ([2]; EX/EM peak no. 2) | EX(nm) ([2]; EX/EM peak no. 2)
C(=Cc1ccc2ccccc2c1)c1cc[n+](C23CC4CC(CC(C4)C2)C3)cc1.[Br-] [Compound B33] | MITO and CYTO and VESICLE | 500 nm | 350-420 nm | 580 nm | 360-400 nm
O=[N+]([O-])c1ccccc1C=CC=Cc1cc[n+](C23CC4CC(CC(C4)C2)C3)cc1.[Br-] [Compound B36] | MITO | 520 nm | 420 nm |  | 
CN(C)c1ccc(C=CC=Cc2cc[n+](C34CC5CC(CC(C5)C3)C4)cc2)cc1.[Br-] [Compound B37] | MITO | 700 nm |  |  | 
COc1cc(OC)c(OC)cc1C=Cc1cc[n+](C23CC4CC(CC(C4)C2)C3)cc1.[Br-] [Compound B38] | NUCLEI and MITO | 580 nm | 400-480 nm |  | 
C[n+]1ccccc1C=Cc1ccc(OCc2ccccc2)c(OCc2ccccc2)c1.[I-] [Compound C12] | MITO? and ER? | 520 nm | 390 (broad) nm |  | 
CN(C)c1ccc(C=Cc2cccc[n+]2C)cc1.[I-] [Compound C19] | MITO | 580 nm | 460 (broad) nm |  | 
COc1ccc2ccccc2c1C=Cc1cccc[n+]1C.[I-] [Compound C23] | CYTO | 530 nm | 420 nm |  | 
COc1ccc2ccccc2c1/C=C/c1c(C)ccc[n+]1C.[I-] [Compound D23] | CYTO | 510 nm | 420(broad) nm |  | 
Cc1ccc[n+](C)c1C=CC=Cc1ccc(N(C)C)cc1.[I-] [Compound D37] | MITO | 650 nm | 470(broad) nm |  | 
CCc1ccc(C=Cc2ccc(N(C)C)cc2)[n+](C)c1.[I-] [Compound E19] | MITO | 580 nm | 460(broad) nm |  | 
CCc1ccc(C=Cc2c(OC)ccc3ccccc23)[n+](C)c1.[I-] [Compound E23] | CYTO | 510 nm | 420(broad) nm |  | 
CCc1ccc(C=C/C=C/c2ccc(N(C)C)cc2)[n+](C)c1.[I-] [Compound E37] | MITO and NUCLEOLI | 670 nm | 520 nm |  | 
C[n+]1ccc(C=Cc2c[nH]c3ccccc23)cc1Br.[I-] [Compound F24] | VESICLE | 550 nm | 460 nm |  | 
Cc1ccc(C=Cc2cc[n+](C)c3ccccc23)cc1.[I-] [Compound G8] | MITO | 650 nm | 440 nm |  | 
COc1ccccc1C=Cc1cc[n+](C)c2ccccc12.[I-] [Compound G9] | MITO | 630 nm | 430 nm |  | 
C[n+]1ccc(C=Cc2ccc(OCc3ccccc3)c(OCc3ccccc3)c2)c2ccccc21.[I-] [Compound G12] | MITO and NUCLEOLI | 590 nm | 420-460 nm |  | 
COc1ccc(C=Cc2cc[n+](C)c3ccccc23)c2ccccc12.[I-] [Compound G14] | MITO | 620 nm | 480(broad) nm |  | 
CC(=O)Nc1ccc(/C=C/c2cc[n+](C)c3ccccc23)cc1.[I-] [Compound G18] | MITO | 670 nm | 430 nm |  | 
CN(C)c1ccc(/C=C/c2cc[n+](C)c3ccccc23)cc1.[I-] [Compound G19] | MITO | 670 nm | 500 nm |  | 
C[n+]1ccc(C=Cc2ccccc2[N+](=O)[O-])c2ccccc21.[I-] [Compound G20] | MITO | 670 nm | 490-540 nm |  | 

SMILES | LOCALIZATION [1] | EM(nm) ([2]; EX/EM peak no. 1) | EX(nm) ([2]; EX/EM peak no. 1) | EM(nm) ([2]; EX/EM peak no. 2) | EX(nm) ([2]; EX/EM peak no. 2)
C[n+]1ccc(/C=C/c2cccc([N+](=O)[O-])c2)c2ccccc21.[I-] [Compound G21] | MITO | 670 nm | 450-550 nm |  | 
COc1ccc2ccccc2c1C=Cc1cc[n+](C)c2ccccc12.[I-] [Compound G23] | VESICLE | 610 nm | 450-500 nm |  | 
C[n+]1ccc(/C=C/c2c[nH]c3ccccc23)c2ccccc21.[I-] [Compound G24] | MITO | 610 nm | 490 nm |  | 
CN(C)c1ccc(C=Cc2cc[n+](C)c3ccccc23)c2ccccc12.[I-] [Compound G27] | MITO | 720 nm | 450-550(broad) nm |  | 
C[n+]1ccc(C=Cc2c(F)c(F)c(F)c(F)c2F)c2ccccc21.[I-] [Compound G31] | MITO and NUCLEOLI | 650 nm | 430 nm |  | 
C[n+]1ccc(C=Cc2cccc3ccccc23)c2ccccc21.[I-] [Compound G32] | MITO | 560 nm | 430 nm |  | 
C[n+]1ccc(C=Cc2ccc3ccccc3c2)c2ccccc21.[I-] [Compound G33] | MITO and CYTO | 550 nm | 360-470 nm |  | 
COc1cc(OC)c(OC)cc1C=Cc1cc[n+](C)c2ccccc12.[I-] [Compound G38] | VESICLE and CYTO and NUCLEI | 640 nm | 420 nm |  | 
C[n+]1c(C=CCc2ccccc2)ccc2ccccc21.[I-] [Compound H1] | MITO | 640 nm |  |  | 
C[n+]1c(C=Cc2ccccc2Br)ccc2ccccc21.[I-] [Compound H3] | MITO | 640 nm | 530 nm |  | 
COc1ccccc1C=Cc1ccc2ccccc2[n+]1C.[I-] [Compound H9] | MITO | 650 nm |  |  | 
COc1ccc(C=Cc2ccc3ccccc3[n+]2C)cc1.[I-] [Compound H10] | MITO | 650 nm | 530 nm |  | 
C[n+]1c(C=Cc2ccc(OCc3ccccc3)c(OCc3ccccc3)c2)ccc2ccccc21.[I-] [Compound H12] | VESICLE | 560 nm | 430 nm |  | 
COc1ccc(C=Cc2ccc3ccccc3[n+]2C)c2ccccc12.[I-] [Compound H14] | VESICLE | 590 nm | 420-520 nm |  | 
COc1ccc(C=Cc2ccc3ccccc3[n+]2C)cc1O.[I-] [Compound H15] | MITO | 610-620 nm | 420 nm |  | 
C[n+]1c(C=Cc2ccc(O)cc2)ccc2ccccc21.[I-] [Compound H16] | NUCLEOLI | 630 nm | 450 nm |  | 
C[n+]1c(C=Cc2ccc(-c3ccccc3)cc2)ccc2ccccc21.[I-] [Compound H17] | VESICLE; also recorded: NUCLEOLI | 650 nm | 430 nm | 540 nm | 420 nm
CC(=O)Nc1ccc(C=Cc2ccc3ccccc3[n+]2C)cc1.[I-] [Compound H18] | MITO and NUCLEOLI | 650 nm | 430 nm |  | 
CN(C)c1ccc(/C=C/c2ccc3ccccc3[n+]2C)cc1.[I-] [Compound H19] | NUCLEOLI | 640 nm | 490(broad) nm |  | 
